Paper PMC7058083, “Structural basis of ligand binding modes at the human formyl peptide receptor 2” (Nature Communications, 2020)
Changes are numbered by the printed parent chain. Residues, ends and D or L forms follow the SMILES beside them. *: point of attachment. For = O=C*

Experiments:
Assay in all cases: Competition binding of fMLFK with WK(FITC)YMVm, flow cytometry on HEK293F cells
[1] = target: T1, wild-type (WT) and mutant FPR2 (Homo sapiens, UniProt P25090); settings: FPR2 WT; mean ± s.e.m., n=5; SEM
T1 construct: expressed in transfected cells; host or cells: HEK293F
T1 sequence (P25090 1-351): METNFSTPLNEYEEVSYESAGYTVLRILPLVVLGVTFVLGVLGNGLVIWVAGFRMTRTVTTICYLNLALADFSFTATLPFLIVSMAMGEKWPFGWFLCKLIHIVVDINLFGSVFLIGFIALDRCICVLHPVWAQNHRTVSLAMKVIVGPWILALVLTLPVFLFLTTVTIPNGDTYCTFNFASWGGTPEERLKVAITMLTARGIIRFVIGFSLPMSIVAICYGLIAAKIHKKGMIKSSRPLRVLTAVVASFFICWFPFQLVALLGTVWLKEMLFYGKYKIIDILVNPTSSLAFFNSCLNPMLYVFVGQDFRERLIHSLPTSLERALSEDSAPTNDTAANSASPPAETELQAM
Method: (§1) Flag-tagged wild-type and mutant FPR2s were cloned into the pTT5 vector and expressed in HEK293F cells. The cells were harvested, and washed with Hanks’ Balanced Salt Solution (HBSS) buffer supplemented with 0.5% bovine serum albumin and 20 mM HEPES, pH 7.4. The cells were then resuspended in the same buffer to the final concentration of 1 × 10^6 cells per ml. The cell-surface expression was measured as mentioned above. […] Mean fluorescent intensity of each well was then read by a FCM (flow cytometry) reader (Millipore). […] For competitive binding of fMLFK, cells were plated in 96-well plates (100,000 cells per well), and incubated with WK(FITC)YMVm at 4 °C for 1 h. The following concentrations of WK(FITC)YMVm were used: 10 nM (wild type, L81^2.60F, E89G, and V105^3.32A), 30 nM (D281^7.32G), 40 nM (H102^3.29F, V160^4.60A, L268^ECL3A, N285^7.36A, and F292^7.43A), and 100 nM (L164^4.64A and T177A). Then increasing concentrations of fMLFK (100 nM–1 mM) were added, and incubated for another 1 h on ice. Mean fluorescent intensity values were measured by flow cytometry. Data were analyzed using Prism 7.0.

[2] = target: T2, wild-type (WT) and mutant FPR2 (Homo sapiens, UniProt P25090, H102F); settings: FPR2 H102F; mean ± s.e.m., n=3; SEM
T2 construct: expressed in transfected cells; host or cells: HEK293F
T2 sequence (P25090 1-351 H102F): T1 sequence (P25090 1-351) with H102F
Method: as §1

[3] = target: T3, wild-type (WT) and mutant FPR2 (Homo sapiens, UniProt P25090, L81F); settings: FPR2 L81F; mean ± s.e.m., n=4; SEM
T3 construct: expressed in transfected cells; host or cells: HEK293F
T3 sequence (P25090 1-351 L81F): T1 sequence (P25090 1-351) with L81F
Method: as §1

[4] = target: T4, wild-type (WT) and mutant FPR2 (Homo sapiens, UniProt P25090, V160A); settings: FPR2 V160A; mean ± s.e.m., n=3; SEM
T4 construct: expressed in transfected cells; host or cells: HEK293F
T4 sequence (P25090 1-351 V160A): T1 sequence (P25090 1-351) with V160A
Method: as §1

## CSCC[C@H](NC=O)C(=O)N[C@@H](CC(C)C)C(=O)N[C@@H](Cc1ccccc1)C(=O)N[C@@H](CCCCN)C(=O)O [fMLFK] (For-MLFK-OH)
[1]
  pKi, competition binding: 4.08 ± 0.19
[2]
  pKi, competition binding: 3.85 ± 0.24
[3]
  pKi, competition binding: 3.97 ± 0.27
[4]
  pKi, competition binding: 4.16 ± 0.14
